In patent US20110160180A1, “Cannabinoid Receptor Ligands” (ASTRAZENECA AB, priority 2008, published 2011):
Several values for one entry are separate records, joined by “and”; a condition that tells them apart may be missing. Equal entries are not always repeated.

Biological target: Human CB1 receptor (hCB1) (Homo sapiens, UniProt P21554)
Experiment: hCB1 GTPγS binding
Format: biochemical
Settings: hCB1 membranes, GTPg35S binding; maximal stimulated binding determined with 10 μM Win 55,212-2
Experimental: hCB1 and hCB2GTPγS Binding
Human CB1 receptor from Receptor Biology (hCB1) or human CB2 receptor membranes (BioSignal) are thawed at 37° C., passed 3 times through a 25-gauge blunt-end needle and diluted in the GTPγS binding buffer (50 mM Hepes, 20 mM NaOH, 100 mM NaCl, 1 mM EDTA, 5 mM MgCl2, pH 7.4, 0.1% BSA). […] The basal and maximal stimulated binding is determined in absence and presence of 1 μM (hCB2) or 10 μM (hCB1) Win 55,212-2 respectively. The membranes are pre-incubated for 5 minutes with 56.25 μM (hCB2) or 112.5 μM (hCB1) GDP prior to distribution in plates (15 μM (hCB2) or 30 μM (hCB1) GDP final). The plates are vortexed and incubated for 60 minutes at room temperature, filtered on Unifilters GF/B (presoaked in water) with the Tomtec or Packard harvester using 3 ml of wash buffer (50 mM Tris, 5 mM MgCl2, 50 mM NaCl, pH 7.0). The filters are dried for 1 hour at 55° C. The radioactivity (cpm) is counted in a TopCount (Packard) after adding 65 μl/well of MS-20 scintillation liquid. Antagonist reversal studies are done in the same way except that (a) an agonist dose-response curve is done in the presence of a constant concentration of antagonist, or (b) an antagonist dose-response curve is done in the presence of a constant concentration of agonist.

Human CB1 receptor (hCB1), sequence (P21554 whole entry): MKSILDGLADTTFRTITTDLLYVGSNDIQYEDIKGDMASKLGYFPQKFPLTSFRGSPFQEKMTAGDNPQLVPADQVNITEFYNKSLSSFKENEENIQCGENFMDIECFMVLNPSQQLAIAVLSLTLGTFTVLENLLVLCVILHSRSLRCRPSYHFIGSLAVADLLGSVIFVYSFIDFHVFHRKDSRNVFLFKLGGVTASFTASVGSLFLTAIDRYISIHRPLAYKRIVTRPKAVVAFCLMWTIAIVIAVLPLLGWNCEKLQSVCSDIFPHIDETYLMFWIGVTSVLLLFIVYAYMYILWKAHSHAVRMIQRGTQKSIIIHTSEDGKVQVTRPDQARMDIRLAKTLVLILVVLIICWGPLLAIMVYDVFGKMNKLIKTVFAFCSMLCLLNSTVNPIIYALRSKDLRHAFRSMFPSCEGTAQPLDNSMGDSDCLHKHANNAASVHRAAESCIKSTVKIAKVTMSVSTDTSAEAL

| SMILES | hCB1 EMax |
| --- | --- |
| Cn1c2c(c3cc(C(=O)N4CC[C@H](C(=O)NCCF)C4)ccc31)CC(C1CCOCC1)CC2 (stereo partly drawn) [(3S)-N-(2-fluoroethyl)-1-[9-methyl-6-(oxan-4-yl)5,6,7,8-tetrahydrocarbazole-3-carbonyl]pyrrolidine-3-carboxamide] | 113% |
| Cn1c2c(c3cc(C(=O)N4CC[C@H](C(=O)NC5CC5)C4)ccc31)CC(C1CCOCC1)CC2 (stereo partly drawn) [(3S)-N-cyclopropyl-1-[9-methyl-6-(oxan-4-yl)5,6,7,8-tetrahydrocarbazole-3-carbonyl]pyrrolidine-3-carboxamide] | 127% |
| CNC(=O)CCCN(C)C(=O)c1ccc2c(c1)c1c(n2C)CCC(C2CCOCC2)C1 (centres unmarked) [N,9-dimethyl-N-[3-(methylcarbamoyl)propyl]-6-(oxan-4-yl)-5,6,7,8-tetrahydrocarbazole-3-carboxamide] | 121% |
| CN(CC(=O)NC1CC1)C(=O)c1ccc2c(c1)c1c(n2C)CCC(C2CCOCC2)C1 (centres unmarked) [N-(cyclopropylcarbamoylmethyl)-N,9-dimethyl-6-(oxan-4-yl)-5,6,7,8-tetrahydrocarbazole-3-carboxamide] | 107% |
| CCN(CC(=O)NC1CC1)C(=O)c1ccc2c(c1)c1c(n2C)CCC(C2CCOCC2)C1 (centres unmarked) [N-(cyclopropylcarbamoylmethyl)-N-ethyl-9-methyl-6-(oxan-4-yl)-5,6,7,8-tetrahydrocarbazole-3-carboxamide] | 118% and 106% |
| CN(CCCC(=O)NCCF)C(=O)c1ccc2c(c1)c1c(n2C)CCC(C2CCOCC2)C1 (centres unmarked) [N-[3-(2-fluoroethylcarbamoyl)propyl]-N,9-dimethyl-6-(oxan-4-yl)-5,6,7,8-tetrahydrocarbazole-3-carboxamide] | 131% and 112% |
| CCN(CC(=O)NCCO)C(=O)c1ccc2c(c1)c1c(n2S(=O)(=O)CC)CCC(C2CCOCC2)C1 (centres unmarked) [N-ethyl-9-ethylsulfonyl-N-(2-hydroxyethylcarbamoylmethyl)-6-(oxan-4-yl)-5,6,7,8-tetrahydrocarbazole-3-carboxamide] | 115% |
| CCN(CC(=O)NCCF)C(=O)c1ccc2c(c1)c1c(n2C)CCC(C2CCOCC2)C1 (centres unmarked) [N-ethyl-N-(2-fluoroethylcarbamoylmethyl)-9-methyl-6-(oxan-4-yl)-5,6,7,8-tetrahydrocarbazole-3-carboxamide] | 119% and 111% |
